Like-named read-outs stand apart in the source and are kept apart here.
Legend:
Assay type in all cases: in vivo
[1] = tested on: cabbage looper (Trichoplusia ni); assay: Insecticidal test for cabbage looper, treated cabbage leaf disc; settings: for pest or weed control at 400 ppm: Trichoplusia ni, foliar, 120 h, read-out: CL: activity at 400 ppm against cabbage looper (% Control rating)
Procedure: (§1) Insecticidal Test for Tobacco Budworm (Heliothis virescens), Beet Armyworm (Spodoptera exigua), and Cabbage Looper (Trichoplusia ni).
(§2) To prepare the test solution, the test compound was formulated at 400 ppm in 7.5 mL of 2 acetone:1 tap water. 250 μL of the test solution was pipetted upon the surface of 8 mL of lepidopteran diet (modified Shorey) contained in each of five one-ounce plastic cups (one cup=1 replication). A second-instar beet armyworm was placed upon the treated diet in each cup once the solvent had air-dried. The solutions remaining after completing applications to the one-ounce cups were then used as leaf-dip solutions for 3.5 cm leaf discs cut from cabbage leaves and cotton cotyledons. Five discs of each type of plant were dipped until thoroughly coated into each rate of each compound (=5 replications of each treatment). After air-drying, the treated leaf discs were placed individually into one-ounce plastic cups. Each dried, treated cotton cotyledon disc was infested with a 2nd instar tobacco budworm larva, and each cabbage leaf disc was infested with a 2nd instar cabbage looper larva. Cups containing the treated substrates and larvae were capped and then held in a growth chamber at 25° C., 50-55% RH, and 14 hr light: 10 hr dark for 5 days.

[2] = tested on: two-spotted spider mite (Tetranychus urticae); assay: Insecticidal test for two-spotted spider mite, ovicide method on cotton leaf discs; settings: hatched larvae after 6 days; for pest or weed control: Tetranychus urticae, foliar, 144 h, read-out: SM: activity against two-spotted spider mite (% Control rating)
Procedure: Insecticidal Test for Two-Spotted Spider Mite (Tetranychus urticae) Ovicide Method: Ten adult female two-spotted spider mites were placed on eight 2.2 cm leaf discs of cotton leaf, allowed to oviposit over 24 hours, and thereafter removed. […] Discs were placed on an agar substrate and held at 24° C. and 90% RH for 6 days.

[3] = tested on: cotton aphid (Aphis gossypii); assay: Insecticidal test for cotton aphid, spray on infested squash cotyledons; settings: for pest or weed control at 50 ppm: Aphis gossypii, 72 h, read-out: CA: activity at 50 ppm against cotton aphid (% Control rating)
Procedure: Insecticidal Test for Cotton Aphid (Aphis gossypii)
To prepare spray solutions, 1 mg of each test compound was dissolved into 1 mL of a 90:10 acetone:ethanol solvent. This 1 mL of chemical solution was added to 19 mL of water containing 0.05% Tween 20 surfactant to produce a 50 ppm spray solution.
Squash cotyledons were infested with cotton aphid (all life stages)16-20 hours prior to application of spray solution. The solution was sprayed on both sides of each infested squash cotyledon (0.5 mL×2 each side) with a sweeping action until runoff. The plants were allowed to air dry and held for 3 days in a controlled room at 26° C. and 40% RH after which time the test was graded. Grading was by actual count using a dissecting microscope and comparison of test counts to the untreated check. Results are given in Tables 1-4 as percent control based on population reduction versus the untreated.

[4] = tested on: tobacco budworm (Heliothis virescens); assay: Insecticidal test for tobacco budworm, treated cotton cotyledon leaf disc; settings: for pest or weed control at 400 ppm: Heliothis virescens, foliar, 120 h, read-out: TBW: activity at 400 ppm against tobacco budworm (% Control rating)
Procedure: as §1, §2

[5] = tested on: beet armyworm (Spodoptera exigua); assay: Insecticidal test for beet armyworm, treated lepidopteran diet; settings: for pest or weed control at 400 ppm: Spodoptera exigua, 120 h, read-out: BAW: activity at 400 ppm against beet armyworm (% Control rating)
Procedure: as §1, §2

[6] = tested on: sweetpotato whitefly (Bemisia tabacia); assay: Insecticidal test for sweetpotato whitefly, spray on cotton plants; settings: 312 h, 200 ppm spray, large nymphs counted after 13 days, read-out: WF: activity at 200 ppm against whitefly (% Control rating)
Procedure: Insecticidal Test for Sweetpotato Whitefly (Bemisia tabacia)
Four mg of each test compound was dissolved by adding 4 mL of a 90:10 acetone:ethanol solvent mixture to the vial containing the sample compound. This solution was added to 16 mL of water containing 0.05% Tween 20 surfactant to produce 20 mL of a 200 ppm spray solution.
Five-week-old cotton plants reared in a greenhouse were stripped of all foliage except for the two uppermost true leaves that were greater than 5 cm in diameter.
These plants were then placed into a laboratory colony of whiteflies for two days for oviposition by the colony females. All whiteflies were then removed from the test plants with pressurized air. The spray solution was then applied to the test plants with a hand-held syringe fitted with hollow cone nozzle. One mL of spray solution was applied to each leaf top and bottom for a total of 4 mL per plant. Four replications of each test compound utilized a total of 16 mL spray solution. Plants were air dried and then placed in a holding chamber (28° C. and 60% RH) for 13 days. Compound efficacy was evaluated by counting, under an illuminated magnifying glass, the number of large nymphs (3rd-4th instar) per leaf.
Percent control based on reduction of large nymphs of a test compound compared to solution-only (no test compound) sprayed plants is reported in Tables 1-4.

[7] = 400 ppm, leaf-dip cabbage leaf disc, 2nd instar larvae, 5 days
[8] = 50 ppm spray, squash cotyledons, all life stages, 3 days
[9] = 400 ppm, leaf-dip cotton cotyledon disc, 2nd instar larvae, 5 days
[10] = 400 ppm, treated diet surface, second-instar larvae, 5 days

Row | Compound | pest or weed control at 400 ppm [1, 7] [%] | pest or weed control [2] [%] | pest or weed control at 50 ppm [3, 8] [%] | pest or weed control at 200 ppm [6] [%] | pest or weed control at 400 ppm [4, 9] [%] | pest or weed control at 400 ppm [5, 10] [%] | further results
1 | 4-[5-Methyl-4-(4′-trifluoromethoxybiphenyl)-4-yl)-4,5-dihydro-oxazol-2-yl]-3,5-dichloropyridines [Compound 47] | – | – | – | – | – | – | CL: activity at 400 ppm against cabbage looper (% Control rating) [1, 7]: A (90-100); SM: activity at 2.5 ppm against two-spotted spider mite (% Control rating) [2]: A (90-100); CA: activity at 50 ppm against cotton aphid (% Control rating) [3, 8]: A (90-100); TBW: activity at 400 ppm against tobacco budworm (% Control rating) [4, 9]: A (90-100); BAW: activity at 400 ppm against beet armyworm (% Control rating) [5, 10]: A (90-100)
2 | FC(F)(F)c1ccc(-c2ccc(C3COC(c4c(Cl)cncc4Cl)=N3)cc2)cc1 (stereo not drawn) [Compound 5] | 90 to 100 | 90 to 100 | 80 to 89 | < 50 | < 50 | 90 to 100 | –
3 | CCOc1ccc(-c2ccc(C3COC(c4c(Cl)cncc4Cl)=N3)cc2)cc1 (stereo not drawn) [Compound 12, 2-(3,5-dichloro-4-pyridinyl)-4-(4-(4-ethoxyphenyl)phenyl)oxazoline] | 60 to 69 | 90 to 100 | 80 to 89 | 80 to 89 | 80 to 89 | 90 to 100 | –
4 | Clc1ccc(-c2ccc(C3COC(c4c(Cl)cncc4Cl)=N3)cc2)cc1 (stereo not drawn) [Compound 16] | – | 90 to 100 | – | – | – | – | pest or weed control at 400 ppm [1]: 90 to 100%; pest or weed control at 50 ppm [3]: < 50%; pest or weed control at 400 ppm [4]: 60 to 69%; pest or weed control at 400 ppm [5]: 90 to 100%
5 | FC(F)(F)c1ccc(-c2ccc(C3COC(c4c(Cl)cncc4Cl)=N3)cc2)c(Cl)c1 (stereo not drawn) [Compound 17] | 90 to 100 | 90 to 100 | 60 to 69 | < 50 | – | 90 to 100 | –
6 | Cc1cccc(-c2ccc(C3COC(c4c(Cl)cncc4Cl)=N3)cc2)c1 (stereo not drawn) [Compound 27] | – | 80 to 89 | – | – | – | – | pest or weed control at 400 ppm [1]: 90 to 100%; pest or weed control at 50 ppm [3]: 90 to 100%; pest or weed control at 400 ppm [4]: < 50%; pest or weed control at 400 ppm [5]: 90 to 100%
7 | Fc1ccc(-c2ccc(C3COC(c4c(Cl)cncc4Cl)=N3)cc2)cc1C(F)(F)F (stereo not drawn) [Compound 29] | 90 to 100 | 70 to 79 | < 50 | – | 80 to 89 | 80 to 89 | –
8 | CC(C)c1ccc(-c2ccc(C3COC(c4c(Cl)cncc4Cl)=N3)cc2)cc1 (stereo not drawn) [Compound 30] | 60 to 69 | 70 to 79 | < 50 | < 50 | – | 90 to 100 | –
9 | Fc1c(-c2ccc(C3COC(c4c(Cl)cncc4Cl)=N3)cc2)cccc1C(F)(F)F (stereo not drawn) [Compound 31] | – | < 50 | – | – | 60 to 69 | – | –
10 | Fc1cc(C(F)(F)F)ccc1-c1ccc(C2COC(c3c(Cl)cncc3Cl)=N2)cc1 (stereo not drawn) [Compound 32] | – | 90 to 100 | 70 to 79 | 90 to 100 | 90 to 100 | 90 to 100 | –
11 | C[S+]([O-])c1ccc(-c2ccc(C3COC(c4c(Cl)cncc4Cl)=N3)cc2)cc1 (stereo not drawn) [Compound 36] | 90 to 100 | – | < 50 | < 50 | 60 to 69 | – | –
12 | Fc1cncc(F)c1C1=NC(c2ccc(-c3ccc(C(F)(F)F)cc3)cc2)CO1 (stereo not drawn) [Compound 39, 2-(3,5-difluoro-4-pyridinyl)-4-(4-(4-trifluoromethylphenyl)phenyl)-oxazoline] | 90 to 100 | 90 to 100 | < 50 | < 50 | – | 80 to 89 | –
13 | Cc1cc(-c2ccc(C(F)(F)F)cc2)ccc1C1COC(c2c(Cl)cncc2Cl)=N1 (stereo not drawn) [Compound 43, 2-(3,5-dichloro-4-pyridinyl)-4-(4-(4-trifluoromethylphenyl)-2-methylphenyl)-oxazoline] | 90 to 100 | 80 to 89 | 80 to 89 | < 50 | 90 to 100 | 90 to 100 | –
14 | Cc1cc(-c2ccc(OC(F)(F)F)cc2)ccc1C1COC(c2c(Cl)cncc2Cl)=N1 (stereo not drawn) [Compound 44, 2-(3,5-dichloro-4-pyridinyl)-4-(4-(4-trifluoromethoxyphenyl)-2-methylphenyl)-oxazoline] | 90 to 100 | 90 to 100 | 80 to 89 | 50 to 59 | 90 to 100 | 90 to 100 | –
15 | C[C@H]1OC(c2c(Cl)cncc2Cl)=N[C@@H]1c1ccc(-c2ccc(OC(F)(F)F)cc2)cc1 [Compound 48] | 90 to 100 | 50 to 59 | 80 to 89 | < 50 | 90 to 100 | – | –

— US6924298B2, “2-(3,5-Disubstituted-4-pyridyl)-4-(thienyl, thiazolyl or arylphenyl)-1,3-oxazoline compounds” (Dow AgroSciences LLC, priority 2000, dated 2005)
